This note sets out measurements from patent publication US8889674B2, “Piperidine and pyrrolidine derivatives having NPY Y5 receptor antagonism” (Shionogi & Co., Ltd., priority 2009, dated 2014).

This experiment addresses T1, mouse NPY Y5 receptor (Mus musculus, UniProt O70342).
T1 construct: expressed in transfected cells
T1 sequence (O70342 1-466): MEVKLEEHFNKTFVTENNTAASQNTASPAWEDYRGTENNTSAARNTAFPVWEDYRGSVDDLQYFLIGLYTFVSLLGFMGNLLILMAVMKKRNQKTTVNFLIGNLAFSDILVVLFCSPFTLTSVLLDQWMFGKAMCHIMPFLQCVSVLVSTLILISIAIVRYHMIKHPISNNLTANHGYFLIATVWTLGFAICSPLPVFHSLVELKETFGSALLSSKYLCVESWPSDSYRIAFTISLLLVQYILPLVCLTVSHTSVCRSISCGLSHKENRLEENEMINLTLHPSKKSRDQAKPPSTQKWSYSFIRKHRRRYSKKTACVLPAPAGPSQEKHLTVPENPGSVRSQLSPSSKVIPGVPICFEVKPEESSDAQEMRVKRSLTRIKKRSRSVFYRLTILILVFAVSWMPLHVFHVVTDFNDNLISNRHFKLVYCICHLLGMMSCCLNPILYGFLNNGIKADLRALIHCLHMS
Kind of experiment: Affinity for NPY Y5 receptor: 125I peptide YY binding to membranes of CHO cells expressing mouse NPY Y5 receptor. The following applies: mouse NPY Y5 receptor in CHO cell membranes, 125I peptide YY 60 pM, 25° C., 2 hours. An excerpt: cDNA sequence encoding mouse NPY Y5 receptor (Biochem. Biophys. Acta 1328: 83-89, 1997) was cloned in the expression vector (pME18S, Takebe et al. Mol. Cell. Biol. 8, 466-472). The obtained expression vector was transfected into CHO cells as a host according to the instruction manual using Lipofectamine reagent (Trademark, Gibco BRL Co., Ltd.). The cells that stably express NPY Y5 receptor were obtained.
The membrane samples prepared from the CHO cells expressing NPY Y5 receptor, the compound of the invention and 30,000 cpm ^125I peptide YY (60 pM of final concentration: Amersham) were incubated in the assay buffer (20 mM HEPES-Hanks buffer containing 0.1% bovine serum albumin, pH 7.4) at 25° C. for 2 hours. The membrane samples were then filtered from the mixture through a glassfilter (GF/C) presoaked with 1% polyethyleneimine. After washing with 50 mM Tris-HCl buffer (pH 7.4), radioactivity retained on the filters was determined using gamma counter. Non-specific binding was determined in the presence of 200 nM of peptide YY and calculated the 50% inhibitory concentration (IC50 value) of the test compound for specific peptide YY binding (Inui, A. et al. Endocrinology 131, 2090-2096 (1992)).
For `CC(=O)N1CCC[C@@H]1C(=O)N1CCC(C(=O)Nc2cccc(-c3ccccc3F)c2)CC1` [Ia-4], the IC50 is 0.47 nM. In other words, the sub-nanomolar range.

Compound `CC(=O)N1CCC[C@@H]1C(=O)N1CCC(c2nc3ccc(-c4ccccc4F)cc3[nH]2)CC1` [Ia-5] gave a half-inhibitory concentration (IC50) of 0.28 nM.

`C[C@@H]1CC(F)(F)CN1C(=O)N1CCC(C(=O)Nc2cccc(-c3ccccc3F)c2)CC1` [Ia-18] registered an IC50 of 1.56 nM.

`O=C(Nc1ccc(OC(F)F)cc1)C1CCN(C(=O)Cn2c(-c3ccccc3)noc2=O)CC1` [Ia-19]: the IC50 came out at 0.29 nM.

Turning to `CC(C)c1noc(=O)n1CC(=O)N1CCC(C(=O)Nc2cccc(-c3ccccc3F)c2)CC1` [Ia-22], the IC50 turned out to be 0.22 nM.

As for `O=C(Cn1cc(Cl)ccc1=O)N1CCC(c2cc3cc(OC(F)F)ccc3[nH]2)CC1` [Ia-28], the IC50 was determined as 0.96 nM.

Take `O=C(Cn1cc(Cl)ccc1=O)N1CCC(c2cc3cc(-c4ccccn4)ccc3[nH]2)CC1` [Ia-29]: the IC50 is 0.97 nM. This IC50 and that of the compound before are within 1.5-fold of each other.

In turn, `N#Cc1ccccc1C(=O)N1CCC(C(=O)Nc2ccn(-c3ccccc3F)n2)CC1` [Ia-34] came in with an IC50 of 0.59 nM.

Compound `N#Cc1ccccc1C(=O)N1CCC(C(=O)Nc2cccc(-c3ccccc3F)c2)CC1` [Ia-35] returned an IC50 of 0.26 nM.

Turning to `N#Cc1ccccc1C(=O)N1CCC(C(=O)Nc2ccnc(-c3ccccc3F)c2)CC1` [Ia-40], the IC50 was 0.27 nM.

`N#Cc1ccccc1C(=O)N1CCC(C(=O)Nc2cccc(-c3ccccn3)c2)CC1` [Ia-41]: the half-inhibitory concentration (IC50) was 0.31 nM.

Regarding `N#Cc1ccccc1C(=O)N1CCC(C(=O)Nc2ccc(-c3ccccc3)cc2)CC1` [Ia-44], the IC50 turned out to be 0.26 nM. This IC50 and that of the compound before are within 1.5-fold of each other.

The compound `N#Cc1ccccc1C(=O)N1CCC(C(=O)Nc2cccc(Oc3ccccc3)c2)CC1` [Ia-47] displayed an IC50 of 0.38 nM.

Compound `N#Cc1ccccc1C(=O)N1CCC(C(=O)Nc2cccc(Oc3ccccc3F)c2)CC1` [Ia-52] had an IC50 of 0.28 nM.

`N#Cc1ccccc1C(=O)N1CCC(C(=O)Nc2cccc(-c3nccs3)c2)CC1` [Ia-54] registered an IC50 of 0.39 nM. This IC50 and that of the compound before are within 1.5-fold of each other.

For `CC(C)n1ccc2cc(NC(=O)C3CCN(C(=O)c4ccccc4C#N)CC3)ccc21` [Ia-57], the IC50 turned out to be 0.23 nM.

In the case of `CC(C)c1ccccc1C(=O)N1CCC(C(=O)Nc2ccc(OC(F)F)cc2)CC1` [Ia-62], the IC50 was determined as 1.77 nM.

Consider `N#Cc1ccccc1C(=O)N1CC[C@H](C(=O)Nc2cccc(-c3ccccc3F)c2)C1` [Ia-63], for which the IC50 turned out to be 0.33 nM. Against the preceding compound, the IC50 is about 5.4-fold lower.

`N#Cc1ccccc1C(=O)N1CC[C@H](C(=O)Nc2ccn(-c3ccccc3F)n2)C1` [Ia-65] yielded an IC50 of 0.25 nM.

As to `N#Cc1ccc(F)cc1C(=O)N1CCC(C(=O)Nc2cccc(-c3ccccc3F)c2)CC1` [Ia-68], the IC50 turned out to be 0.2 nM. The IC50 values of the last two compounds are within 1.5-fold of each other.

The compound `N#Cc1ccc(F)cc1C(=O)N1CCC(C(=O)Nc2cccc(-c3ccccn3)c2)CC1` [Ia-70] yielded an IC50 of 0.18 nM.

In the case of `N#Cc1ccc(F)cc1C(=O)N1CCC(C(=O)Nc2cccc(-c3ncccn3)c2)CC1` [Ia-71], the IC50 came out at 0.37 nM.

In turn, `N#Cc1ccccc1C(=O)N1CCC(c2nc(-c3ccc(Cl)c(Cl)c3)c[nH]2)CC1` [Ia-85] displayed an IC50 of 0.12 nM.

In turn, `N#Cc1ccccc1C(=O)N1CCC(c2nc(-c3cccc(C(F)(F)F)c3)c[nH]2)CC1` [Ia-87] came in with an IC50 of 0.17 nM.

On to `Cc1[nH]c(C2CCN(C(=O)c3ccccc3C#N)CC2)nc1-c1ccccc1` [Ia-88], for which the IC50 was found to be 0.35 nM. Against the preceding compound, the IC50 is about 2.1-fold higher.

On to `N#Cc1ccccc1C(=O)N1CCC(c2nc3cc(-c4ccccc4F)ccc3[nH]2)CC1` [Ia-93], for which the IC50 was 0.19 nM.

`N#Cc1ccccc1C(=O)N1CCC(c2cc(-c3ccc(Cl)c(Cl)c3)n[nH]2)CC1` [Ia-94] yielded a 50% inhibitory concentration (IC50) of 0.3 nM.

`N#Cc1ccccc1CN1CCC(C(=O)Nc2cccc(-c3ccccc3F)c2)CC1` [Ia-99] yielded an IC50 of 0.64 nM.

The compound `O=C(Nc1cccc(-c2ccccc2F)c1)C1CCN(C(=O)c2ccccc2C(F)(F)F)CC1` [Ia-104] had a half-inhibitory concentration (IC50) of 2 nM.

Compound `O=C(Nc1ccn(-c2ccccc2F)n1)[C@H]1CCN(C(=O)c2ccccc2C(F)(F)F)C1` [Ia-106] came in with an IC50 of 1.5 nM.

In the case of `CC(C)n1ccc2cc(NC(=O)C3CCN(C(=O)c4ccccc4C(F)(F)F)CC3)ccc21` [Ia-108], the IC50 worked out at 0.48 nM. This IC50 is about 3.1-fold lower than that of the compound before.

The compound `O=C(Nc1cccc(-c2ccccc2F)c1)C1CCN(C(=O)c2cc(Cl)ccn2)CC1` [Ia-113] gave an IC50 of 4.28 nM.

With `CC(C)n1cccc1C(=O)N1CCC(C(=O)Nc2cccc(-c3ccccc3F)c2)CC1` [Ia-116], the IC50 came to 1.43 nM.
